Reference: patent US12691136B2, “Metal compositions and methods of use thereof” (THE UNIVERSITY OF MASSACHUSETTS, priority 2020, dated 2026)
“Also recorded” adds a separate entry of the source. Read-outs that look alike come from different tables or passages of the source.

Columns and labels:
[1] = test system: Pseudomonas aeruginosa PAO1; test: Antibacterial assay / bacterial checkerboard assay (MIC, FIC, MBC); settings: for Enhancement: MIC without TU vs with 7 mM TU; for change in MIC / activity with the addition of TU (isobologram): FIG. 1A / 1B, combination with TU; for MIC: Pseudomonas aeruginosa; for Fold Improvement in MIC: at the best FIC; for impact of TU on activity: common antibiotics with TU, Table 3 entries; for Best FIC: with TU at the [TU] of the same line
[2] = test system: Pseudomonas aeruginosa PAO1; settings: reference antibiotics against P. aeruginosa PAO1; cited from earlier work
[3] = [Au], Table 8, strain not given

## CC(=O)OC[C@H]1O[C@@H]([S-])[C@H](OC(C)=O)[C@@H](OC(C)=O)[C@@H]1OC(C)=O.CCP(CC)CC.[Au+] [Auranofin, auranofin]
[1]; [Au], Table 9
  MIC (0 mM TU): 377 µM
  MIC (7 mM TU): 1.5 µM
[1]; 7 mM TU vs alone
  activity enhancement: 256 fold
[1]; Table 9
  Enhancement: 256

## O.O.O.[Cl][Au-]([Cl])([Cl])[Cl].[H+] [HAuCl4 (Au^3+), tetrachloroauric(III) acid trihydrate]
[1]; [Au], Table 9
  MIC (0 mM TU): 40 µM
  MIC (7 mM TU): 1.3 µM
[1]; 7 mM TU vs alone
  activity enhancement: 32 fold
[1]; Table 9
  Enhancement: 32

## C[PH](C)(C)[Au][S]CCO [MS-40, trimethylphosphine gold(I) mercaptoethanol]
[1]; [3]
  MIC (0 mM TU): 5.7 µM
  MIC (7 mM TU): 5.7 µM
[1]; 1 mM TU, [Au], Table 8, strain not given
  MIC (1 mM TU): 5.7 µM
[1]; 2 mM TU, [Au], Table 8, strain not given
  MIC (2 mM TU): 5.7 µM
[1]; 3 mM TU, [Au], Table 8, strain not given
  MIC (3 mM TU): 5.7 µM
[1]; 13 mM TU, [Au], Table 8, strain not given
  MIC (13 mM TU): 2.9 µM
[1]; 27 mM TU, [Au], Table 8, strain not given
  MIC (27 mM TU): 2.9 µM
[1]; 54 mM TU, [Au], Table 8, strain not given
  MIC (54 mM TU): 1.4 µM
[1]; at 54 mM TU
  activity enhancement: 4 fold

## CCN1CCN(C(=O)N[C@@H](C(=O)N[C@@H]2C(=O)N3[C@@H]2SC(C)(C)[C@@H]3C(=O)O)c2ccccc2)C(=O)C1=O [Piperacillin]
[1]
  change in MIC / activity with the addition of TU (isobologram): very little change
  Fold Improvement in MIC: 1
  impact of TU on activity: no impact
  Best FIC: 1.0
[1]; listed as piperacillin
  change in MIC / activity with the addition of TU (isobologram): almost no change
[1]; PAO1, read-out: MIC w/o TU
  MIC: 2 µM
[1]; PAO1, read-out: MIC with TU
  MIC: 2 µM

## NC(N)=S [TU, thiourea]
[1]; PAO1
  MIC: 16 mg/mL

## O=C(O)c1cn(C2CC2)c2cc(N3CCNCC3)c(F)cc2c1=O [ciprofloxacin]
[1]
  change in MIC / activity with the addition of TU (isobologram): very little change; also recorded: almost no change

## Gentamicin
[1]
  change in MIC / activity with the addition of TU (isobologram): very little change; also recorded: almost no change
  Fold Improvement in MIC: 1
  impact of TU on activity: no impact
  Best FIC: 1.0
[1]; TU at the [TU] of the same line (best FIC)
  MIC with TU: 4.0 µM
[1]; without TU
  MIC w/o TU: 4.0 µM

## colistin
[2]
  MIC: 0.001 mg/mL
